US20240216444A1, “DESIGNED BACTERIAL COMPOSITIONS” (Seres Therapeutics, Inc., priority 2015, published 2024)

Key:
[1] = tested on: C. difficile carbon sources; test: Carbon source utilization, 87 carbon sources in three base media, OD600 and acid production (Example 3B); type: cell-based; parameters: key: “+” and “w” refer to “positive” and “weak” utilization of the carbon source, respectively; “+” and “w” refer to “positive” and “weak” utilization of the carbon source, respectively
Excerpt: Three C. difficile strains and 12 non-C. difficile bacterial strains were profiled using a panel of carbon sources. As used herein, unless otherwise indicated, carbon sources includes all sources tested as growth substrates in the experiments herein. The three C. difficile strains were Clostridium difficile ATCC 9689, Clostridium difficile ATCC 43593, and Clostridium difficile ATCC 43255, all of which are available from the American Type Culture Collection (ATCC).
Growth of the strains was tested on 87 different carbon sources in a 96-well plate format. The panel contained 34 carbon sources reported to be utilized by C. difficile in the literature (Hafiz and Oakley. 1976 J Med Microbiol 9:129-36; Wilson and Perini. 1988 Infection and Immunity 56:2610-14; Bergey and Holt. Bergey's Manual of Determinative Bacteriology. Baltimore: Williams & Wilkins, 1994; Sebaihia et al. 2006 Nature Genetics 38:779-786) including amino acids, mono-, di-, tri- and polysaccharides, glucoside and sugar alcohols. Carbon sources were added at 0.5% into three different base media (Base medium 1 SSNC composition: beef extract 1 g/L, yeast extract 2 g/L, bacto soytone 6 g/L, NaCl 4 g/L, KH2PO4 5.44 g/L, MgSO4 2 mM, CaCl2 1 mM, MnCl2 0.1 mM, cysteine hydrochloride 0.25 g/L, hemin 10 mg/L, menadione 1 mg/L, MOPS 6.3 g/L, pH 7; Base medium 2 SPOSCR composition: beef extract 1 g/L, yeast extract 2 g/L, bacto soytone 6 g/L, NaCl 4 g/L, KH2PO4 5.44 g/L, MgSO4 2 mM, CaCl2) 1 mM, MnCl2 0.1 mM, cysteine hydrochloride 0.25 g/L, hemin 10 mg/L, menadione 1 mg/L, MOPS 8.4 g/L, NaHCO3 0.4%, pH 7; Base medium 3 YCFA: casitone 10 g/L, yeast extract 2.5 g/L, cysteine hydrochloride 1 g/L, hemin 10 mg/L, ATCC vitamin solution 10 mL/L, ATCC trace element solution 10 mL/L, K2HPO4 0.45 g/L, KH2PO4 0.45 g/L, (NH4)2SO4 0.9 g/L, MgSO4×7H2O 90 mg/L, CaCl2) 90 mg/L, acetic acid 33 mM, propionic acid 9 mM, isobutyric acid 1 mM, isovaleric acid 1 mM, valeric acid 1 mM, pH 7).
Positive growth was scored by measuring optical density at 600 nm and comparing it to growth in base medium without an added carbon source. For two, base media acid production was also scored by measuring optical density at 558 nm of pH-indicator phenol red mixed with spent medium from each culture.

[2] = tested on: bile salt hydrolase (BSH) activity on conjugated bile acids (gCA, tCA, gCDCA, tCDCA); test: Bile salt hydrolase (BSH) activity screen using TLC; type: biochemical
[3] = tested on: HSDH activity (7-, 3- or 12-hydroxyl groups) on cholic, chenodeoxycholic, deoxycholic and lithocholic acid; test: LC-MS screen for hydroxysteroid dehydrogenase (HSDH) activity; type: biochemical; details: LC-MS
[4] = tested on: 7α-dehydroxylation of cholic acid and chenodeoxycholic acid; test: LC-MS screen for 7α-dehydroxylation (7α-OH) activity; type: biochemical; details: LC-MS
[5] = SCFA profile of bacterial culture supernatants by GC-MS; details: GC-MS of culture supernatants
Excerpt: The same bacterial culture supernatants used for HDAC inhibition assays described supra were submitted to GC-MS analysis to determine which SCFAs underlie the observed inhibition of HDAC. The method employed (MSOmics, Denmark) measures formate, acetate, propionate, butyrate, isobutyrate (2-methyl-propionate), isovalerate (3-methyl-butyrate), valerate (pentanoate), 4-methyl-pentanoate, caproate (hexanoate), and heptanoate. […] Numbers in Table 11 indicate detected SCFA concentration. B=butyrate; P=propionate; IB=isobutyrate, and IV=isovalerate.

[6] = tested on: bile salt hydrolase (BSH) activity on conjugated bile acids; test: LC-MS screen for bile salt hydrolase (BSH) activity
Protocol: To conduct the assay, briefly, bacteria were grown on permissive agar media plates for 24 to 48 hours to generate sufficient biomass to carry out assays. The bacterial lawns were resuspended in PBS to create a homogenous suspension that was then used for the BSH assay. To assay for BSH activity, bacterial suspensions were incubated with two separate mixtures of four distinct conjugated bile acids, each at concentration of 150 μg/ml, for 4 hours at 37° C. under anaerobic conditions. The reaction mixture was then extracted with an equal volume of acetonitrile, spun down to pellet bacteria and the supernatant filtered through a 0.2 μM filter to generate a sample for LC-MS analysis. Bile acids were determined using an Agilent 1260 HPLC coupled to a Bruker Compact qTOF MS. Samples were run on a bidentate C18 column using an acetonitrile:water buffer system to separate bile acids which were then ionized in negative mode and identified using a qTOF-MS. BSH activity was determined by the formation of deconjugated bile acid products that were verified by comparison to known standards and quantified, if necessary, using standard curves.

[7] = tested on: HDAC enzymes (HeLa nuclear extract); test: HDAC inhibition activity in supernatants of cultures grown in different carbon sources; details: 25% HDAC inhibition as cut off
Protocol: To determine whether the HDAC inhibition was affected by the type and level of carbon source available to a bacterial species, HDAC inhibition by supernatants derived from a selection of bacterial species used in DBCs was determined. In these experiments, bacteria were grown in a variety of carbon sources including mono-, di-, polysaccharides, and porcine mucine. Briefly, 600 μL bacterial cultures in peptone/yeast extract medium (PY) supplemented with 0.5% of the selected carbon sources were inoculated in 96 deep well plates, grown for 4 days, then the microbial cells were pelleted by centrifugation, and 15 μL of the culture medium (supernatant) was used for the HDAC assay with HeLa nuclear extract as described above. Because HDAC activity is reduced at low pH (Latham et al. 2012 Nucl Acid Res 40:4794-803) and the microbial cultures had pH as low as 5, to ensure that the final pH of the assay was not reduced by the addition of supernatant, 10 μL of a 1M Tris pH 8 solution was added per well to bring the final Tris buffer concentration to 75 mM. Thus, assays were performed with 15 μL supernatant, 10 μL 1M Tris pH 8, 25 μL of assay buffer and 50 μL of diluted HeLa nuclear extract, which were preincubated for 30 minutes prior to the addition of developing reagent. Luminescence was measured after 30 minutes.

Substance: Clostridium glycolicum
- utilization of carbon source Citrus pectin ([1]; Citrus pectin): +
- utilization of carbon source NAG ([1]; NAG (N-acetylglucosamine)): +
- utilization of carbon source alanine ([1]; alanine): w
- utilization of carbon source arginie ([1]; arginie): w
- utilization of carbon source aspartic acid ([1]; aspartic acid): +
- utilization of carbon source formate ([1]; formate): +
- utilization of carbon source fructose ([1]; fructose): +
- utilization of carbon source glucose ([1]; glucose): +
- utilization of carbon source glycogen ([1]; glycogen): w
- utilization of carbon source guar ([1]; guar): w
- utilization of carbon source isoleucine ([1]; isoleucine): +
- utilization of carbon source leucine ([1]; leucine): +
- utilization of carbon source ornithine ([1]; ornithine): w
- utilization of carbon source polygalacturonate ([1]; polygalacturonate): +
- utilization of carbon source propanediol ([1]; propanediol): w
- utilization of carbon source ribose ([1]; ribose): +
- utilization of carbon source serine ([1]; serine): +
- utilization of carbon source sialic acid ([1]; sialic acid): w
- utilization of carbon source threonine ([1]; threonine): +
- utilization of carbon source tryptophan ([1]; tryptophan): +
- utilization of carbon source valine ([1]; valine): +
- utilization of carbon source α-ketoglutarate ([1]; α-ketoglutarate): +
- BSH activity on gCDCA by TLC [2]: no BSH activity
- HSDH 3a [3]: + (‘+’ indicates greater than 50-fold increase in levels of product bile acid, suggesting strong activity)
- HSDH 7a [3]: + (‘+’ indicates greater than 50-fold increase in levels of product bile acid, suggesting strong activity)
- HSDH 12a [3]: −
- 7a Dehydrox CA ([4]; substrate CA): −
- 7a Dehydrox CDCA ([4]; substrate CDCA): −
- SCFAs produced [5]: produced isovalerate, isobutyrate and propionate
- indole test (12 strains, eight carbon sources): positive
- colour of culture in indole test (F. plautii: each of the 8 carbon sources, C. glycolicum: all C-sources except glucose, pectin, FOS/inulin): turned red
- BSH gCA ([6]; substrate gCA): + (‘+’ indicates greater than 50-fold increase in levels of product bile acid, suggesting strong activity)
- BSH gCDCA ([6]; substrate gCDCA): + (‘+’ indicates greater than 50-fold increase in levels of product bile acid, suggesting strong activity)
- BSH t-aMCA ([6]; substrate t-aMCA): + (‘+’ indicates greater than 50-fold increase in levels of product bile acid, suggesting strong activity)
- BSH t-bMCA ([6]; substrate t-bMCA): + (‘+’ indicates greater than 50-fold increase in levels of product bile acid, suggesting strong activity)
- BSH tCA ([6]; substrate tCA): + (‘+’ indicates greater than 50-fold increase in levels of product bile acid, suggesting strong activity)
- BSH tCDCA ([6]; substrate tCDCA): + (‘+’ indicates greater than 50-fold increase in levels of product bile acid, suggesting strong activity)
- HDAC inhibition when alternative nutrient sources are tested [7]: positive
